Values after ≈ are worked out from the molar mass of the structure shown.
Legend:
[1] = Stability of cyclization product 29; type: physicochemical
Method: To a mixture of 28 (70 mg, 0.067 mmol, 1.0 eq) and anisole (0.1 mL) was added TFA (1.0 mL). the resulting mixture was stirred for 15 min at room temperature. The TFA was evaporated and coevaporated with CH2 Cl2 to dryness. The resulting residue was dried on vacuo for 2 h and triturated with ethyl ether to give a white solid. This white solid was dissolved in THF (1.5 mL). To this solution was added triethylamine (20 μL, 0.14 mmol, 2.0 eq). After stirring 10 min., the solvent was evaporated and the resulting residue was immediately purified by PTLC (silica gel, CH2 Cl2 : EtOAc: MeOH, 4:1:0.5) to give 40 mg (67%) of 29 as a white solid. This product was unstable with a tendency to form a bicycle by-product (t1/2 is about 1 day) and was used for the next step immediately. ^1 H NMR (300 MHz, CD3 Cl/D2 O vs TMS): δ1.62 (4H, m); 2.45 (2H, m); 2.76/2.78 (3H, s); 3.32 (1H, m); 3.70 (1H, m); 3.93 (4H, m); 5.17 (6H, m); 7.32 (20H, m) ppm. IR (NaCl, film): 3381, 3258, 2934, 1765, 1713, 1646, 1608, 1504, 1452, 1252, 1186, 1096, 1063 cm^-1. MS (ES+): Calcd. for (C45 H49 N9 O11 +H)=892.4. Found (M+H)=892.4; (M+H-108)=784.3.

[2] = Antibiotic activity by bioassay against authentic TAN-1057 A/B; type: cell-based; settings: compared with authentic TAN-1057 A/B (Takeda)
Method: To a solution of 29 (40 mg, 0.045 mmol, 1.0 eq) in MeOH (1.5 mL)/CH2 Cl2 (0.5 mL) was added PdCl2 (40 mg). The reaction flask was degassed and charged with H2 (1 atm). The mixture was stirred for 30 min. The mixture was then purged with nitrogen, and filtered to remove the catalyst. The filtrate was concentrated and dried in vacuo to give a 2HCl salt of TAN-1057 A/B (1/2) (1:1, 20 mg, 100% yield) as an amorphous solid. This product was identical in mobility by HPLC, mnr and antibiotic activity by bioassay to authentic TAN-1057 A/B (Takeda). ^1 HNMR (300 MHz, D2 O): δ1.77 (4H, m); 2.85 (1H, dd, J=18, 9.3 Hz); 3.00 (1H, dd, J=18, 4.0 Hz); 3.17 (3H, s); 3.27 (2H, t, J=6.0 Hz); 3.70 (1H, m); 3.99 (2H, m); 5.14 (1H, dd, J=12, 8.5 Hz) ppm; IR (KBr pellet): 3350, 3179, 2955, 1696, 1622, 1395, 1205, 1135 cm^1. MS (ES^+): Calcd. (C13 H25 N9 O3 +H)=356.2, Found (M+H)=356.4.

[3] = Stability in 0.1 M phosphate buffer pH=5; type: physicochemical; settings: 0.1 M phosphate buffer at pH=5
Method: Compound 36 (10 mg, 0.012 mmol) was treated with anisole (0.1 mL) and TFA (1.0 mL) at 0° C. The mixture was stirred for 1 h at room temperature, concentrated and purified by PTLC (silica gel, CH2 Cl2 : MeOH, 6:1) to give 6.0 mg of a semi-solid. To a solution of this substance (6 mg, 0.0066 mmol, 1.0 eq) in MeOH (1.0 mL)/CH2 Cl2 (0.5 mL) was added PdCl2 (8.0 mg) After degassing with N2, the reaction mixture was charged with H2 (1 atm.) and the mixture was hydrogenated for 10 min. The mixture was then purged with nitrogen, and filtered to remove the catalyst. The filtrate was concentrated and dried in vacuo to give a 2HCl salt of TAN-1057 C/D (1:1, 3 mg ~100% yield) as an amorphous solid. ^1 H NMR (300 MHz, DMSO-d6 vs TMS): δ1.51 (4H, m); 2.82 (3H, s); 2.70-2.90 (2H, m); 3.09 (2H, m); 3.43 (1H, m); 3.79 (2H, m); 4.66 (1/2H, m); 4.75 (1/2H, m); 7.26 (6H, m); 7.86 (1H, br); 8.06 (1H, br); 8.70 (2H, br); 9.15 (1H, br); 10.35 (1H, br) ppm. MS (FAB): Calcd. for (C13 H25 N9 O3 +H)=356.2. Found: (M+H)=356.3; (M+2H)^++ =178.7.

[4] = tested on: Staphylococcus aureus ATCC 29213; assay: MIC, broth microdilution (NCCLS), S. aureus ATCC 29213; type: cell-based; settings: ATCC29213, S. aureus ATCC 29213, reference strain, 35° C., 20 h, read-out: Minimal Inhibitory Concentration (MIC)
Method: (§1) Test compounds were assayed against Staphylococcus aureus FDA 209P by the 10 fold agar disc diffusion assay on BHI-plates at pH=7 and pH=9 in accordance with the procedure from the National Committee for Clinical Laboratory Standards 1989. Susceptibility testing. A panel of 16 bacteria was used to evaluate the antimicrobial activity of the compounds (Table 2). The MIC of each antimicrobial agent was determined using a microdilution method according to NCCLS standards^1. Serial twofold dilutions of antibiotics were prepared in Mueller-Hinton broth (Difco Laboratories, Detroit, Mich.). Bacteria were grown to early log phase at 35° C. (1 hours) in Mueller-Hinton broth and cultures were diluted to achieve a final inoculum of 5×10^5 CFU per ml. Microtiter plates were incubated at 35° C. for 20 h and then were read using a Thermomax microplate reader (Molecular Devices, Sunnyvale, Calif.) and a microtiter plate reading mirror. The MIC was defined as the lowest concentration of antibiotic which inhibited the development of visible growth at the end of the incubation period. The standard reference strains were Staphyloccocus aureus ATCC […], Enterococcus faecalis ATCC 29212, E. faecium ATCC 35667, Escherichia coli ATCC 25922, and Pseudomonas aeruginosa ATCC 27853. Imipenem and vancomycin were used as antibiotic controls and values for reference strains were in accordance with the NCCLS.
Staphylococcus ATCC Reference strain

[5] = tested on: Staphylococcus aureus COL8A; assay: MIC, broth microdilution (NCCLS), S. aureus COL8A; type: cell-based; settings: 20 h, read-out: Minimal Inhibitory Concentration (MIC)
Method: as §1
(§2) Staphylococcus Methicillin
aureus COL8A susceptible, […]

[6] = tested on: Staphylococcus aureus PC1; assay: MIC, broth microdilution (NCCLS), S. aureus PC1; type: cell-based; settings: S. aureus PC1, Type A βlactamase hyperproducer, 35° C., 20 h, read-out: Minimal Inhibitory Concentration (MIC)
Method: as §1
Staphylococcus Type A βlactamase
aureus PC1 hyperproducer

[7] = tested on: Staphylococcus aureus sa ATCC 13709; assay: MIC, broth microdilution (NCCLS), S. aureus sa ATCC 13709; type: cell-based; settings: ATCC13709, S. aureus sa ATCC 13709, Smith strain, 35° C., 20 h, read-out: Minimal Inhibitory Concentration (MIC)
Method: as §1

[8] = tested on: Staphylococcus aureus COL; assay: MIC, broth microdilution (NCCLS), S. aureus COL; type: cell-based; settings: S. aureus COL, methicillin resistant, β-lactamase negative, 35° C., 20 h, read-out: Minimal Inhibitory Concentration (MIC)
Method: as §1, §2
aureus COL resistant, β-

Staphylococcus aureus 76 = assay: MIC, broth microdilution (NCCLS), S. aureus 76; type: cell-based; settings: Staphylococcus aureus; S. aureus 76, methicillin resistant, β-lactamase positive; 35° C., 20 h; read-out: Minimal Inhibitory Concentration (MIC)
Method: as §1, §2

[9] = tested on: Staphylococcus aureus ATCC 33593; assay: MIC, broth microdilution (NCCLS), S. aureus ATCC 33593; type: cell-based; settings: ATCC33593, S. aureus ATCC 33593, methicillin resistant, β-lactamase positive, 35° C., 20 h, read-out: Minimal Inhibitory Concentration (MIC)
Method: as §1
Staphylococcus ATCC Methicillin
aureus ATCC 33593 resistant, β-

[10] = tested on: Staphylococcus aureus sa201; assay: MIC, broth microdilution (NCCLS), S. aureus sa201; type: cell-based; settings: S. aureus sa201, clinical isolate Spain, methicillin resistant, β-lactamase positive, 35° C., 20 h, read-out: Minimal Inhibitory Concentration (MIC)
Method: as §1
Staphylococcus Clinical isolate,
aureus sa201 Spain resistant, β-

[11] = tested on: Staphylococcus haemolyticus UA281; assay: MIC, broth microdilution (NCCLS), S. haemolyticus UA281; type: cell-based; settings: S. haemolyticus UA281, methicillin resistant, 35° C., 20 h, read-out: Minimal Inhibitory Concentration (MIC)
Method: as §1, §2
haemolyticus UA281 resistant

[12] = tested on: Enterococcus faecalis ATCC 29212; assay: MIC, broth microdilution (NCCLS), E. faecalis ATCC 29212; type: cell-based; settings: ATCC29212, E. faecalis ATCC 29212, reference strain, 35° C., 20 h, read-out: Minimal Inhibitory Concentration (MIC)
Method: as §1
(§3) Enterococcus ATCC Reference strain

[13] = tested on: Enterococcus faecium ATCC 35667; assay: MIC, broth microdilution (NCCLS), E. faecium ATCC 35667; type: cell-based; settings: ATCC35667, E. faecium ATCC 35667, reference strain, 35° C., 20 h, read-out: Minimal Inhibitory Concentration (MIC)
Method: as §1, §3

[14] = tested on: Enterococcus faecium BM4147; assay: MIC, broth microdilution (NCCLS), E. faecium BM4147; type: cell-based; settings: E. faecium BM4147, vancomycin resistant, vanA, 35° C., 20 h, read-out: Minimal Inhibitory Concentration (MIC)
Method: as §1
Enterococcus Vancomycin
faecium BM4147 resistant, vanA

[15] = tested on: Enterococcus faecium efm040; assay: MIC, broth microdilution (NCCLS), E. faecium efm040; type: cell-based; settings: E. faecium efm040, clinical isolate U.S.A., ampicillin resistant, 35° C., 20 h, read-out: Minimal Inhibitory Concentration (MIC)
Method: as §1
Enterococcus Clinical isolate,
faecium efm040 U.S.A. resistant

[16] = tested on: Escherichia coli ATCC 25922; assay: MIC, broth microdilution (NCCLS), E. coli ATCC 25922; type: cell-based; settings: ATCC25922, E. coli ATCC 25922, reference strain, 35° C., 20 h, read-out: Minimal Inhibitory Concentration (MIC)
Method: as §1

[17] = tested on: Pseudomonas Aeruginosa ATCC 27853; assay: MIC, broth microdilution (NCCLS), P. aeruginosa ATCC 27853; type: cell-based; settings: ATCC27853, P. aeruginosa ATCC 27853, reference strain, 35° C., 20 h, read-out: Minimal Inhibitory Concentration (MIC)
Method: as §1

MRSA = settings: cited from earlier work
[18] = tested on: Gram-positive and Gram-negative bacteria; settings: S- versus R-configuration in the heterocyclic portion; cited from earlier work
[19] = cited from earlier work
[20] = cited from earlier work; remark: listed apart in the source

## CN(C(=O)C[C@H](CCCN(C(=N)NC(=O)OCc1ccccc1)C(=O)OCc1ccccc1)NC(=O)OCc1ccccc1)C1CNC(NC(=O)NC(=O)OCc2ccccc2)=NC1=O (some centres unmarked) [Compound 29]
[1]
  t1/2 (tendency to form a bicycle by-product): about 1 day

## CN(C(=O)C[C@@H](N)CCCNC(=N)N)C1CNC(NC(N)=O)=NC1=O (some centres unmarked) [TAN-1057 A/B, 3S,5'S/R-3-amino-6-[(aminoiminomethyl)amino]-N-[2-[(aminocarbonyl)amino]-1,4,5,6-tetrahydro-4-oxo-5-pyrimidinyl)-N-methyl-hexanamide]
[2]
  antibiotic activity by bioassay: identical

## CN1C(=O)C[C@H](CCCNC(=N)N)NC(=O)C1CNC(=N)NC(N)=O (stereo partly drawn) [TAN-1057 C/D, [[[[5-[3-[(aminoiminomethyl)amino]propyl]hexahydro-(2S/R,5S)-1-methyl-3,7-dioxo-1H-1,4-diazepin-2-yl]methyl]amino]iminomethyl]urea]
[3]
  reversion upon standing in phosphate buffer: reverted to a mixture of 1 and 2

## CN(C(=O)C[C@@H](N)CCCNC(=N)N)[C@H]1CNC(NC(N)=O)=NC1=O [TAN-1057A]
[4]
  MIC: 16 µg/mL (≈ 45 µM)
[5]
  MIC: 16 µg/mL (≈ 45 µM)
[6]
  MIC: 8 µg/mL (≈ 22.5 µM)
[7]
  MIC: 16 µg/mL (≈ 45 µM)
[8]
  MIC: 16 µg/mL (≈ 45 µM)
Staphylococcus aureus 76
  MIC: 16 µg/mL (≈ 45 µM)
[9]
  MIC: 16 µg/mL (≈ 45 µM)
[10]
  MIC: 16 µg/mL (≈ 45 µM)
[11]
  MIC: 32 µg/mL (≈ 90 µM)
[12]
  MIC: 32 µg/mL (≈ 90 µM)
[13]
  MIC: 32 µg/mL (≈ 90 µM)
[14]
  MIC: 32 µg/mL (≈ 90 µM)
[15]
  MIC: 128 µg/mL (≈ 360 µM)
[16]
  MIC: 256 µg/mL (≈ 720 µM)
[17]
  MIC: 256 µg/mL (≈ 720 µM)
MRSA
  activity against MRSA: potent activity against all of the MRSA strains evaluated
[18]
  relative antibacterial activity of stereoisomers: more active than TAN-1057 B and C
[19]
  comparison to vancomycin in mice: compare very favorably to vancomycin in mice
[20]; acidic and basic media, racemization of α-amino acid stereogenic center
  hydrolysis: occurs in both acidic and basic media
[20]; basic aqueous solutions, hydrolytic opening of six-membered ring
  loss of antibacterial activity in basic aqueous solutions: gradually lost their antibacterial activities in basic aqueous solutions

From patent publication US6162925A, “Antibiotic for methicillin resistant bacteria” (Research Corporation Tech., Inc., priority 1999, dated 2000)
